Experiment [1] relates to Cavα1. Briefly: Western blot of YFP-Cavα1 in transfected COS-7 cells treated with Akt inhibitor and degradation-system inhibitors. It counts as cell-based. The method, then: FIG. 3. Akt mediates regulation of Cavα1 protein density at the plasma membrane. (A) RT-PCR analysis of Cavα1 mRNA expression from WT and KO ventricular extracts. GADPH serves as loading control. (B) Western blot analysis of whole lysate, membrane, and microsomal fractions from WT and KO ventricular extracts. (C) YFP-Cavα1 transfected COS-7 cells alone or in combination with Cavβ2-expression vector were serum-starved and treated with Akt inhibitor and 1 μM bafilomycin-A1, 25 μM MG132, or 25 μM calpeptin. 6 h post drug administration, cell lysates were prepared and subjected to Western blot analysis for YFP. GAPDH served as a loading control. (D-E) Cavα1 protein levels in KO cardiomyocytes infected with empty (mock) or active E40K-Akt (AdAkt) expressing adenoviral vector (D) and in whole lysates of WT and E40K-Akt (Tg Akt) hearts (E). Representative experiments are shown (n=4).
However, since the amount of Cavα1 was reduced in both microsomal and membrane fractions from KO extracts compared to WT (FIG. 3B), we hypothesized that the reduced Cavα1 level observed in KO mice was due to enhanced protein degradation in addition to impaired protein translocation to the plasma membrane. To assess the pathway involved in the Akt-dependent Cavα1 protein degradation, three sets of specific cell degradation system inhibitors were examined for their ability to prevent the decrease in Cavα1 protein elicited by Akt inhibition. […] Similar results were obtained by inhibiting calpain, the intracellular, Ca^2+-dependent cysteine protease known to be involved in membrane protein degradation (Belles et al., 1988; Romanin et al., 1991).
Cell transfection was performed in serum-starved medium using LipoFectamine2000 (Invitrogen) according to the manufacturer's instructions. 5 μM Akt-XI inhibitor (Calbiochem), insulin (Sigma), 1 μM bafilomycin-A 1 (Sigma), 25 μM MG132 (Calbiochem), and 25 μM Calpeptin (Calbiochem) were used as described. […]
Proteins expression was evaluated in total lysates or cell fractions by Western blot analysis according to standard procedures. […]
Background: Immunoblotting shows a protein as a band on a membrane.

Experiment [2] concerns Cavα1 C-terminal domain. Briefly: GST pull-down in vitro binding assay. The note with it: for Interaction with Cavα1 C-terminal domain: 35S-methionine-labeled C-Cavα1 (aa 1477-2169). From the text:
FIG. 7. Rapid-protein-degradation PEST sequences determine Cavα1 protein instability. (A) Schematic representation of Cavα1 mapping the α1-interacting domain (AID) and PEST sequences in the I-II and II-III cytosolic loops. Deleted PEST sequences (P, H) are highlighted in red. (B) Western blot and immunofluorescence analyses showing relative levels of WT and PEST deleted mutants of YFP-Cavα1 (n=3). Bar represents 5 μm. (C) Wild-type Cavα1 subunit (alone or cotransfected with Cavβ2SE) and its in-frame ΔPEST mutants (Cavα1-ΔP and Cavα1-ΔH) half-lives were determined in COST cells. After overnight starvation, transfected cells were pulse-chased and analyzed along a time course (*P<0.001 compared to Cavα1, ANOVA; n=3). (D) Western blot and immunofluorescence analyses showing relative levels of WT GFP and N-terminal fusion PEST mutants (n=3). Bar represents 20 μm. (E) The Cavα1 C-terminus interacts with the Akt-phosphorylated-GST-Cavβ2 coiled coil region. Bacterially expressed GST or GST-C-Cavβ2 (Cavβ2: aa 480-655) fusion protein and glutathione sepharose beads were incubated with equal amounts of in vitro translated [^35S] methionine-labeled C-Cavα1 (Cavα1: aa 1477-2169). […] Bound proteins were resolved by SDS-PAGE (4-12%). 10% of the input protein in each binding reaction is shown. Coomassie staining of SDS-PAGE is shown in the bottom panel. (F) Ca^2+ currents recorded in tsA-201 cells cotransfected with Cavβ2-WT and either Cavα1-WT or Cavα1-ΔH and cultivated for 36 h in the presence or absence of fetal bovine serum (10%). Current densities (pA/pF) are normalized to the control condition. n>35 at each condition, (*P<0.05 compared to Cavα1, ANOVA). […]
Affinity-purified GST-fusion proteins were generated using a pGEX system (Amersham) and phosphorylated as described below. […] Bound proteins were eluted in SDS sample buffer, subjected to SDS-PAGE, and detected by autoradiography. […]

Experiment [3] concerns Cavα1 currents. In words: Whole-cell patch clamp Ca2+ current (ICa,L) in cotransfected tsA-201 cells with or without serum. It counts as cell-based. The note with it: cotransfection with Cavα1; 36 h. The method, then: FIG. 6. Akt phosphorylation of Cavβ2 preserves Cavα1 currents. Ca^2+ currents recorded in cotransfected tsA-201 cells with YFP-Cavα1 and either Cavβ2-WT, Cavβ2-SE, or Cavβ2-SA mutant, cultivated for 36 h in the presence or absence of fetal bovine serum (10%). Currents were recorded 1-2 minutes after the whole-cell configuration was achieved (i.e. after stabilization of the current) and were elicited by a 0 mV depolarization of 200 ms duration applied from a holding potential of −80 mV. Currents are normalized to cell capacitance (Current density, pA/pF). Representative current traces are shown. n>35 at each condition, (*P<0.05 compared to YFP-Cavα1, ANOVA).
FIG. 7. […] (C) Wild-type Cavα1 subunit (alone or cotransfected with Cavβ2SE) and its in-frame ΔPEST mutants (Cavα1-ΔP and Cavα1-ΔH) half-lives were determined in COST cells. After overnight starvation, transfected cells were pulse-chased and analyzed along a time course (*P<0.001 compared to Cavα1, ANOVA; n=3). […] (F) Ca^2+ currents recorded in tsA-201 cells cotransfected with Cavβ2-WT and either Cavα1-WT or Cavα1-ΔH and cultivated for 36 h in the presence or absence of fetal bovine serum (10%). […]
Macroscopic Ice, was recorded at room temperature (˜22° C.) using the whole-cell patch clamp technique in native cells as previously described (Aimond et al., 2005; Maier et al., 2003). […]
(Patch clamp records ionic current or voltage across a cell membrane.)

[4] abbreviates: Cavα1 and Cavβ2 cotransfected cells, 1 μM bafilomycin-A1, 25 μM MG132 or 25 μM calpeptin, 6 h.

Here are results for four compounds from US20120070451A1, “METHODS AND COMPOSITIONS FOR MODULATING CARDIAC CONTRACTILITY” (Consiglio Nazionale Delle Ricerche, priority 2009, published 2012).

Residues, ends and D or L forms follow the SMILES beside them. *: point of attachment. Cbz = O=C(OCc1ccccc1)*

Regarding `CO/C1=C\C(C)=C\[C@@H](C)[C@@H](O)[C@@H](C)C/C(C)=C/C=C/[C@H](OC)[C@@H]([C@@H](C)[C@@H](O)[C@H](C)[C@@]2(O)C[C@@H](O)[C@H](C)[C@@H](C(C)C)O2)OC1=O` [bafilomycin-A1], the entries for the “Cavα1 protein decrease induced by Akt inhibition” value in experiment [1] (setting [4]) and in experiment [1] (absence of Cavβ2 cotransfection) were “prevented the decrease in Cavα1 protein induced by Akt inhibition” and “protection effect was abolished”, respectively.
Consider “Akt-phosphorylated Cavβ2 C-terminal coiled coil region: bacterially expressed GST-C-Cavβ2 (Cavβ2: aa 480-655) fusion protein phosphorylated by recombinant Akt”, for which the “Interaction with Cavα1 C-terminal domain” value is “direct interaction took place” in experiment [2] and “Binding occurred” in experiment [2] (listed as Akt-phosphorylated GST-C-Cavβ2). The “Interaction with other Cavα1 cytosolic domains” value in experiment [2] (data not shown) is listed as “No interactions were found”.
`CC(C)C[C@@H](C=O)NC(=O)[C@H](CC(C)C)NC(=O)[C@H](CC(C)C)NC(=O)OCc1ccccc1` [MG132] (Cbz-Leu-Leu-Leu-aldehyde): in experiment [1] (setting [4]), the “Cavα1 protein decrease induced by Akt inhibition” value is reported as “failed to protect Cavα1 from protein degradation”.
On to “Cavβ2-WT: wild-type Ca2+ beta2 channel accessory subunit”, for which the “ICa,L in serum-free medium compared to serum-containing medium” value in experiment [3] was “significant depressed ICa,L”.
